Patent US20200239530A1, “COMPOUNDS AND METHODS OF MODULATING PROTEIN DEGRADATION” (Vividion Therapeutics, Inc., priority 2017, published 2020)

Molecular target: T1, ZNF644 Zinc finger protein 644 (Homo sapiens, UniProt Q9H582)
T1 construct: Cells were resuspended in cold PBS on ice and sonicated with a probe sonicator to achieve lysis; endogenous in cells
T1 sequence (Q9H582 1-1327): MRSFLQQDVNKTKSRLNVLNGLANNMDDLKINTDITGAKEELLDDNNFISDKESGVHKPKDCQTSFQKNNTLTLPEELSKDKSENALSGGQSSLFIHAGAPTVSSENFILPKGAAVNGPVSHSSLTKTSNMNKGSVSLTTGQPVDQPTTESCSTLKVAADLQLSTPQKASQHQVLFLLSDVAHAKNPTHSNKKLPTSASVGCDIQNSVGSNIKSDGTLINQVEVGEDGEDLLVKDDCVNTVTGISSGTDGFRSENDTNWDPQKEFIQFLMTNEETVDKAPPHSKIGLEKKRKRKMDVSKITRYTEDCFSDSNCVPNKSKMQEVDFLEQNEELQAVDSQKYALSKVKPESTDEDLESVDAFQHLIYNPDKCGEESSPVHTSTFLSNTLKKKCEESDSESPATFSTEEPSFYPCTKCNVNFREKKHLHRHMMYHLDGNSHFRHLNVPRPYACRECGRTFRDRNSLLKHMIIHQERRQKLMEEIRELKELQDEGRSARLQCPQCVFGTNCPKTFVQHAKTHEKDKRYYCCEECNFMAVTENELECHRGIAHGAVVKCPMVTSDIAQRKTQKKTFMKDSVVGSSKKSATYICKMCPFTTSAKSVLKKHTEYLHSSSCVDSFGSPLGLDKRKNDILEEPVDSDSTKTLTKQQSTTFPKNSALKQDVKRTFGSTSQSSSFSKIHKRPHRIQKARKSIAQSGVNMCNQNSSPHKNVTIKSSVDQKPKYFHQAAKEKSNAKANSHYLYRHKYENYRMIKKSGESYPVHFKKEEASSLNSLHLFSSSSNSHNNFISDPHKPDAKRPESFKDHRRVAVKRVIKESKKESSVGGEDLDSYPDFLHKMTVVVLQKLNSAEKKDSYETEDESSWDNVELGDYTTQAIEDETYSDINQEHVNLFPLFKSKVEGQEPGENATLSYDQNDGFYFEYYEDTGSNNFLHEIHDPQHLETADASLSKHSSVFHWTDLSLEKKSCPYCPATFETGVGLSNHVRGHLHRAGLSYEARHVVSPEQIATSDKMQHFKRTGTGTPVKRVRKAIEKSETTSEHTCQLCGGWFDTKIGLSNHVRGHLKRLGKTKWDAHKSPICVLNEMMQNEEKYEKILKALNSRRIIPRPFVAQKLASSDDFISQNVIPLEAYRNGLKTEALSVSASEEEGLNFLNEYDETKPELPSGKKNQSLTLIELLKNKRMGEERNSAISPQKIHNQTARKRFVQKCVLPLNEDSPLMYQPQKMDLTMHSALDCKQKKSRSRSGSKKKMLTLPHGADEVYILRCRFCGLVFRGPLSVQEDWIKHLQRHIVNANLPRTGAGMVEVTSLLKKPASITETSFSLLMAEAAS
Test: Cysteine liganding, probe competition
Format: binding
Outline: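 Probe competition in native proteome: 5 mg/ml lysate, compound 1 hr 25° C, then desthiobiotin iodoacetamide (10 mM stock) 1 hr 25° C; acetone ppt, urea/DTT reduction, iodoacetamide alkylation, trypsin, streptavidin pull-down.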

COc1ccc2c(c1)CCCN2C(=O)CCl [KB02]
Liganded (ZNF644 Res# 507, uniprot Q9H582): YES

O=C(CCl)Nc1cc(C(F)(F)F)cc(C(F)(F)F)c1 [KBO3]
100 Max (uniprot Q9H582): 24.53
100 ave (uniprot Q9H582): 11.2825
500 ave (uniprot Q9H582): 67.685
500 Max (uniprot Q9H582, in % (unit assumed)): 72.77
